Measurements published in patent publication US20250129109A1.

What was measured:
[1] = system: human gingival fibroblast cells (HGF-1); assay: Cell cytotoxic test, human gingival fibroblast cells; settings: HGF-1 cells; IC50 as silver concentration
[2] = system: stem cells from human exfoliated deciduous teeth (SHED1); assay: Cell cytotoxic test, stem cells from human exfoliated deciduous teeth; settings: IC50 as silver concentration

C1N2CN3CN1CP(C2)C3.C1N2CN3CN1CP(C2)C3.[Ag+].[F-] [SCF, [Ag(1,3,5-triaza-7-phosphaadamantane)2]F]
IC50 against HGF-1 (cell cytotoxicity) [1]: 43.98±12.80 ppm | IC50 against SHED1 (cell cytotoxicity) [2]: 34.54±5.09 ppm
